Values joined by “and” are separate entries in the source; they are usually repeats but may differ in a detail not shown here. Identical values can stand only once.
Test: Pharmacokinetic study of 151 (and 100) in SD rats, iv and oral; plasma
Conditions: for AUC0-t of 151 / AUC0-∞ of 151 / CL of 151 / MRT of 151 / T1/2 of 151 / Vss of 151 / Cmax of 151: plasma
Protocol: A pharmacokinetic study of 151 was conducted in SD rats. The study consisted of two dose levels at 1.0 (iv) and 10 (oral) mg/kg. The blood samples were collected at predetermined times from rats and centrifuged to separate plasma. An LC/MS/MS method was developed to determine the test article in plasma samples. The pharmacokinetic parameters of 151 following iv and oral administration to SD rats were calculated. The absolute bioavailability was evaluated.
The final concentration of the test article was 0.2 mg/mL for iv administration and 1.0 mg/mL for oral administration. The test article solutions were administered using the most recent body weight for each animal.
Blood (approximately 0.3 mL) were collected via orbital plexus into tubes containing sodium heparin at 0.25, 0.5, 1, 2, 3, 5, 7, 9, and 24 hours after oral administration; at 5 min, 15 min, 0.5, 1, 2, 3, 5, 7, 9 and 24 hours after iv administration. Samples were centrifuged for 5 min, at 4° C. with the centrifuge set at 11,000 rpm to separate plasma. The obtained plasma samples were stored frozen at a temperature of about −70° C. until analysis.
Frozen plasma samples were thawed at room temperature and vortexed thoroughly. With a pipette, an aliquot (30 μL) of plasma was transferred into a 1.5-mL conical polypropylene tube. To each sample, 160 μL of acetonitrile were added. The samples were then vigorously vortex-mixed for 1 min. After centrifugation at 11000 rpm for 5 min, a 15 μL aliquot of the supernatant was injected into the LC-MS/MS system for analysis.
Calibration standards were prepared by spiking 30 μL of the 151 standard solutions into 30 μL of heparinized blank rat plasma. The nominal standard concentrations in the standard curve were 1.00, 3.00, 10.0, 30.0, 100, 300, 1000 and 3000 ng/mL.
The analysis was performed using an LC-MS/MS system consisting of the following components—HPLC system: Agilent 1200 series instrument consisting of G1312B vacuum degasser, G1322A binary pump, G1316B column oven and G1367D autosampler (Agilent, USA); MS/MS system: Agilent 6460 triple quadrupole mass spectrometer, equipped with an APCI Interface (Agilent, USA); Data system: MassHunter Software (Agilent, USA).
Chromatographic separation was carried out at room temperature—Analytical column: C8 column (4.6 mm×150 mm I.D., 5 μm, Agilent, USA); Mobile phase: Acetonitrile:10 mM ammonium acetate (75:25, v/v); Flow rate: 0.80 mL/min; Injection volume: 15 μL.
The mass spectrometer was operated in the positive mode. Ionization was performed applying the following parameters: gas temperature, 325° C.; vaporizer temperature, 350° C.; gas flow, 4 L/min; nebulizer, 20 psi; capillary voltage, 4500 V; corona current, 4 μA. 151 was detected using MRM of the transitions m/z 283→m/z 123 and m/z 283→m/z 251, simultaneously. The optimized collision energies of 25 eV and 10 eV were used for m/z 123 and m/z 251, respectively.
Quantification was achieved by the external standard method. Concentrations of the test article were calculated using a weighted least-squares linear regression (W=1/x^2).
The pharmacokinetic parameters were evaluated using WinNonlin version 5.3 (Pharsight Corp., Mountain View, Calif., USA), assuming a non-compartmental model for drug absorption and distribution. • AUC0-t is the area under the plasma concentration-time curve from time zero to last sampling time, calculated by the linear trapezoidal rule. • AUC0-∞ is the area under the plasma concentration-time curve from time zero extrapolating to infinity. • T1/2 is the elimination half-life associated with the terminal (log-linear) elimination phase, which is estimated via linear regression of time vs. log concentrations. • CL is the total body clearance. • Vss is the volume of distribution at steady-state.

[1] = 151 IV 1.0 mg/kg, SD rats, individual, 1 mg/kg
[2] = 151 IV 1.0 mg/kg, SD rats, mean
[3] = 151 PO 10 mg/kg, SD rats, individual, 10 mg/kg

For COC(=O)C1C2CCC(O2)C1C(=O)N1CCN(C)CC1 (centres unmarked) [Compound 151], the 151 plasma concentration (151 IV 1.0 mg/kg, SD rats, 0.083 h, individual, 1 mg/kg) was 1677 ng/mL and 1301 ng/mL, the 151 plasma concentration (151 IV 1.0 mg/kg, SD rats, 0.083 h, mean) was 1489 ng/mL and the 151 plasma concentration (151 IV 1.0 mg/kg, SD rats, 0.250 h, individual, 1 mg/kg) was 1160 ng/mL and 949 ng/mL. For the same molecule, the 151 plasma concentration (151 IV 1.0 mg/kg, SD rats, 0.250 h, mean) was 1055 ng/mL, the 151 plasma concentration (151 IV 1.0 mg/kg, SD rats, 0.50 h, individual, 1 mg/kg) was 760 ng/mL and 807 ng/mL and the 151 plasma concentration (151 IV 1.0 mg/kg, SD rats, 0.50 h, mean) was 683 ng/mL. The 151 plasma concentration (151 IV 1.0 mg/kg, SD rats, 1.0 h, individual, 1 mg/kg) was 381 ng/mL and 314 ng/mL, the 151 plasma concentration (151 IV 1.0 mg/kg, SD rats, 1.0 h, mean) was 348 ng/mL and the 151 plasma concentration (151 IV 1.0 mg/kg, SD rats, 2.0 h, individual, 1 mg/kg) was 95.8 ng/mL and 103 ng/mL. The 151 plasma concentration (151 IV 1.0 mg/kg, SD rats, 2.0 h, mean) was 99.6 ng/mL, the 151 plasma concentration (151 IV 1.0 mg/kg, SD rats, 3.0 h, individual, 1 mg/kg) was 39.6 ng/mL and 28.1 ng/mL and the 151 plasma concentration (151 IV 1.0 mg/kg, SD rats, 3.0 h, mean) was 33.8 ng/mL. The 151 plasma concentration (151 IV 1.0 mg/kg, SD rats, 5.0 h, individual, 1 mg/kg) was 9.75 ng/mL and 3.63 ng/mL, the 151 plasma concentration (151 IV 1.0 mg/kg, SD rats, 5.0 h, mean) was 6.69 ng/mL and the 151 plasma concentration (151 IV 1.0 mg/kg, SD rats, 7.0 h, individual, 1 mg/kg) was 12.2 ng/mL and 1.83 ng/mL. The 151 plasma concentration (151 IV 1.0 mg/kg, SD rats, 7.0 h, mean) was 7.02 ng/mL, the 151 plasma concentration (151 IV 1.0 mg/kg, SD rats, 9.0 h, individual) was 2.01 ng/mL and the 151 plasma concentration (151 IV 1.0 mg/kg, SD rats, 9.0 h, individual, 1 mg/kg) was “BLQ”. The 151 plasma concentration (151 IV 1.0 mg/kg, SD rats, 9.0 h, mean) was 1.00 ng/mL, the 151 plasma concentration (151 IV 1.0 mg/kg, SD rats, 24 h, individual) was “BLQ” and the “conversion of 151 to 100 in plasma (statement)” value (151 PO 10 mg/kg and iv 1.0 mg/kg) was “converted to LB100”. The 151 plasma concentration (151 PO 10 mg/kg, SD rats, 0.25 h, individual, 10 mg/kg) was 2231 ng/mL and 2029 ng/mL and 2731 ng/mL, the 151 plasma concentration (151 PO 10 mg/kg, SD rats, 0.25 h, mean) was 2330 ng/mL and the 151 plasma concentration (151 PO 10 mg/kg, SD rats, 0.50 h, individual, 10 mg/kg) was 2451 ng/mL and 3934 ng/mL and 3343 ng/mL. The 151 plasma concentration (151 PO 10 mg/kg, SD rats, 0.50 h, mean) was 3243 ng/mL, the 151 plasma concentration (151 PO 10 mg/kg, SD rats, 1.0 h, individual, 10 mg/kg) was 2204 ng/mL and 2581 ng/mL and 2538 ng/mL and the 151 plasma concentration (151 PO 10 mg/kg, SD rats, 1.0 h, mean) was 2441 ng/mL. The 151 plasma concentration (151 PO 10 mg/kg, SD rats, 2.0 h, individual, 10 mg/kg) was 1100 ng/mL and 1237 ng/mL and 1582 ng/mL, the 151 plasma concentration (151 PO 10 mg/kg, SD rats, 2.0 h, mean) was 1306 ng/mL and the 151 plasma concentration (151 PO 10 mg/kg, SD rats, 3.0 h, individual, 10 mg/kg) was 521 ng/mL and 660 ng/mL and 794 ng/mL. The 151 plasma concentration (151 PO 10 mg/kg, SD rats, 3.0 h, mean) was 658 ng/mL, the 151 plasma concentration (151 PO 10 mg/kg, SD rats, 5.0 h, individual, 10 mg/kg) was 125 ng/mL and 99.4 ng/mL and 192 ng/mL and the 151 plasma concentration (151 PO 10 mg/kg, SD rats, 5.0 h, mean) was 139 ng/mL. For the same molecule, the 151 plasma concentration (151 PO 10 mg/kg, SD rats, 7.0 h, individual, 10 mg/kg) was 42.6 ng/mL and 20.7 ng/mL and 68.0 ng/mL, the 151 plasma concentration (151 PO 10 mg/kg, SD rats, 7.0 h, mean) was 43.8 ng/mL and the 151 plasma concentration (151 PO 10 mg/kg, SD rats, 9.0 h, individual, 10 mg/kg) was 52.1 ng/mL and 38.2 ng/mL and 66.1 ng/mL. For the same molecule, the 151 plasma concentration (151 PO 10 mg/kg, SD rats, 9.0 h, mean) was 52.1 ng/mL, the 151 plasma concentration (151 PO 10 mg/kg, SD rats, 24 h, individual) was “BLQ” and the “F of 151” value (151 PO 10 mg/kg, SD rats, mean) was 54.6%. For the same molecule, the “conversion to endothal in the plasma (statement)” value (151 administered to rats) was “converted to endothal”, the “mean clearance of 151 from rat plasma” value (151 iv 1.0 mg/kg) was 14.3 mL/min/kg and the “volume of distribution at steady state of 151” value (151 iv 1.0 mg/kg) was 0.736 L/kg. The “elimination half-life of 151” value (151 iv 1.0 mg/kg (n=2)) was 0.89 h, the “mean half-life of 151” value (151 oral 10 mg/kg (n=3)) was 1.26 h and the “time of peak plasma concentration of 151” value (151 oral 10 mg/kg (n=3)) was 0.5 h. For the same molecule, the “absolute bioavailability (F) of 151” value (oral 10 mg/kg, based on AUC0-∞) was 54.6%, the “AUC0-t of 151” value [1] was 1293 ng·h/mL and 1045 ng·h/mL and the “AUC0-∞ of 151” value [1] was 1309 ng·h/mL and 1047 ng·h/mL. The “CL of 151” value [1] was 12.7 mL/min/kg and 15.9 mL/min/kg, the “MRT of 151” value [1] was 0.91 h and 0.81 h and the “T1/2 of 151” value [1] was 0.91 h and 0.87 h. The “Vss of 151” value [1] was 0.696 L/kg and 0.775 L/kg, the “AUC0-t of 151” value [2] was 1169 ng·h/mL and the “AUC0-∞ of 151” value [2] was 1178 ng·h/mL. For the same molecule, the “CL of 151” value [2] was 14.3 mL/min/kg, the “MRT of 151” value [2] was 0.86 h and the “T1/2 of 151” value [2] was 0.89 h. The “Vss of 151” value [2] was 0.736 L/kg, the “AUC0-t of 151” value [3] was 5399 ng·h/mL and 6423 ng·h/mL and 7199 ng·h/mL and the “AUC0-∞ of 151” value [3] was 5499 ng·h/mL and 6484 ng·h/mL and 7328 ng·h/mL. The “Cmax of 151” value [3] was 2451 ng/mL and 3934 ng/mL and 3343 ng/mL, the “MRT of 151” value [3] was 1.86 h and 1.62 h and 1.95 h and the “T1/2 of 151” value [3] was 1.33 h and 1.10 h and 1.35 h. For the same molecule, the “AUC0-t of 151” value (151 PO 10 mg/kg, SD rats, mean) was 6340 ng·h/mL, the “AUC0-∞ of 151” value (151 PO 10 mg/kg, SD rats, mean) was 6437 ng·h/mL and the “Cmax of 151” value (151 PO 10 mg/kg, SD rats, mean) was 3243 ng/mL. For the same molecule, the “MRT of 151” value (151 PO 10 mg/kg, SD rats, mean) was 1.81 h and the “T1/2 of 151” value (151 PO 10 mg/kg, SD rats, mean) was 1.26 h.

— patent US20160264593A1 (priority 2013, published 2016)
